# What was measured:
# [1] = In vivo pharmacokinetic time profile in mice (plasma and brain); parameters: species or system mouse; details: for Kp / half-life / Cmax: male; for Kp: C57, mouse, brain, read-out: measured brain/plasma ratio; for half-life / Cmax: C57, plasma; for half-life / Cmax / Estimated unbound brain Cmax / Unbound plasma, Cmax: mouse; for half-life: read-out: T½ (converted)
# Description: (§1) Male Sprague Dawley rats or male C57 mice from SLAC Laboratory Animal Co. Ltd., Shanghai, China or SIPPR/BK Laboratory Animal Co. Ltd., Shanghai, China were used for pharmacokinetic studies. Animals were group housed during acclimation and individually housed during in-life. The animal room environment was controlled (conditions: temperature 20 to 26° C., relative humidity 30 to 70%, 12 hours artificial light and 12 hours dark) and all animals have access to Certified Rodent Diet (Beijing KEAO XIELI Feed Co., Ltd. Beijing, P.R. China.) ad libitum. Animals were deprived of food overnight prior to dosing and fed approximately 4 hours post-dosing. Water was autoclaved before provided to the animals ad libitum.
# (§2) For oral dosing, the dose formulation was administered via oral gavage.
# (§3) Animals were anesthetized via isoflurane. At terminal time point, about 200 μL blood was collected from cardiac puncture or abdominal vein. All blood samples were transferred into microcentrifuge tubes containing 5 μL of K2EDTA (0.5 M) as anti-coagulant and placed on wet ice until processed for plasma by centrifugation (3,000 rpm for 5 minutes at 2 to 8° C.) within half an hour of collection and kept at −70±10° C. until LC/MSMS analysis
# (§4) After blood collection, brain was harvested and washed twice with cold deionized water, and blotted on filter paper, weighted and frozen until processed. Brain samples were thawed and homogenized with 4-fold of cold water using Covaris (peak power 450.0, Duty Factor 20.0, Cycles/Burst 200). for 3 min, vortex for 10 second every 1 min. Samples were further stored at −79° C. (dilution factor=5) until bioanalysis
# [2] = Unbound fraction in brain; assay type: in vitro ADME, rat
# [3] = In vivo pharmacokinetic time profile in rats (plasma and brain); details: rat; for Cmax / half-life / Kp: male, Sprague Dawley; for Cmax / half-life: plasma; for Cmax: vehicle 10% HP-betaCD; for half-life: read-out: T½ (converted); for Kp: brain, read-out: measured brain/plasma ratio
# Description: as §1, §2, §3, §4
# hNav1.1 = hNav1.1 (Homo sapiens, UniProt P35498); assay: Off-target Nav1.1 electrophysiology (Qpatch), multiple state readouts; assay type: cell-based; details: resting, use-dependent and inactivated state readouts, up to 30 μM; for EC50: activation; for IC50: inhibition
# Description: The activity of selected compound examples at three key ion channel off targets was measured, namely Nav1.1, Kv1.1/1.2 and Kv7.2/7.3.
# The voltage gated sodium channel, Nav1.1, is known to have state-dependent pharmacology, therefore, compound examples were tested for effects on inhibition or activation at the resting state channel, a use-dependent readout, and an inactivated state readout by electrophysiology, at concentrations up to 30 μM.
# [4] = tested on: fast-spiking interneurons (FSI); assay: Hippocampal brain slice voltage clamp recording, outward K+ current from FSI; assay type: cell-based, rat; details: 10 μM; for Outward current in presence of compound relative to baseline: step to 0 mV, baseline 100%
# Description: Male Sprague Dawley rats (18˜24 days old) from Shanghai Laboratory Animal Center (Shanghai, China) were used for brain slice experiments. They were housed in groups of five in controlled conditions (temperature of 23±3° C., humidity of 40-70%, and 12:12 light-dark cycle with lights on at 5:00 am) and free access to food and water. All procedures were conducted in agreement with the guideline of Institutional Animal Care and Use Committee at ChemPartner. Ethical approval was obtained by the The Danish Animal Experimentation Inspectorate (journal no. 2014 15 0201 00339).
# Animals were decapitated by a guillotine and their brains quickly removed and placed in ice-cold modified artificial cerebral spinal fluid (ACSF) containing (in mM): 110 sucrose, 60 NaCl, 3 KCl, 5 glucose, 28 NaHCO3, 1.25 NaH2PO4, 0.5 CaCl2 and 7 MgCl2, aerated with 95% O2/5% CO2. The brains were block-trimmed and glued onto the stage of a vibratome (VT1200S, Leica Microsystems Inc., Bannockburn, Ill., USA). Parasagittal hippocampal slices (300 μm) were cut and incubated in the regular carbogenated ACSF containing (in mM): 119 NaCl, 2.5 KCl, 1.2 Na2HPO4, 25 NaHCO3, 2.5 CaCl2, 1.3 MgCl2, 10 glucose at 35° C. for the first 60 min and then transferred to room temperature prior to recordings.
# In the hippocampal CA1 pyramidal cell layer, fast-spiking interneurons (FSI) or pyramidal (PYR) cells were visualized using differential interference contrast-infrared (DIC-IR)-assisted microscopy and whole-cell patch clamp recordings performed using an Axon Multiclamp 700B amplifier (Molecular Devices, Union City, Calif.). FSI were selected based on non-pyramidal shape and multipolar dendrites. […]
# Whole cell patch clamp recordings in voltage clamp mode were used to study the outward K^+ current from FSI or PYR cells. […] Outward K^+ current was recorded in the presence of 1 μM TTX and 10 μM DNQX in the ACSF to inhibit voltage-gated Na^+ channels and AMPA channels, respectively. […] For all recordings, the access resistance was monitored throughout the experiments. […]
# [5] = 3 mg/mg, SC administration, dose 3 (mg/mg [sic])
# [6] = 30 mg/mg, SC administration, dose 30 (mg/mg [sic])
# [7] = PO, dose 3 (mg/mg), unbound fraction in plasma 10%
# [8] = PO, dose 30 (mg/mg), unbound fraction in plasma 10%
# [9] = SC, dose 3 (mg/mg), unbound fraction in plasma 10%
# [10] = SC, dose 10 (mg/mg), unbound fraction in plasma 10%
# [11] = PO administration, dose 3 (mg/mg)
# [12] = PO administration, dose 30 (mg/mg)
# [13] = SC administration, dose 3 (mg/mg)
# [14] = SC administration, dose 10 (mg/mg)
structure (smiles),measurement,setting,value
"Cc1ccc(S(=O)(=O)n2ccc(C(=O)NCc3ncco3)c2)cc1 [Compound 86, 1-(4-methylbenzene-1-sulfonyl)-N-[(1,3-oxazol-2-yl)methyl]-1H-pyrrole-3-carboxamide]",Kp,[1]; subcutaneous,0.3
same,half-life,"[1]; SC administration, dose 3 (mg/mg) (Table 7)",42 min
same,Cmax,"[1]; SC administration, dose 3 (mg/mg), vehicle 10% HP-betaCD (Table 7)",3020 ng/mL
same,half-life,"[1]; SC administration, dose 30 (mg/mg) (Table 7)",36 min
same,Cmax,"[1]; SC administration, dose 30 (mg/mg), vehicle 10% HP-betaCD (Table 7)",22000 ng/mL
same,Estimated unbound brain Cmax,"[1]; SC, dose 3 (mg/mg), based on brain/plasma ratio 0.3 and unbound fraction in brain 11%",289 nM
same,"Unbound plasma, Cmax","[1]; SC, dose 3 (mg/mg), unbound fraction in plasma 8%",700 nM
same,Estimated unbound brain Cmax,"[1]; SC, dose 30 (mg/mg), based on brain/plasma ratio 0.3 and unbound fraction in brain 11%",2100 nM
same,"Unbound plasma, Cmax","[1]; SC, dose 30 (mg/mg), unbound fraction in plasma 8%",5094 nM
same,fraction unbound,[2]; rat table footnote,0.12
same,Cmax,[3]; [5],1100 ng/mL
same,half-life,[3]; [5],18 min
same,Cmax,[3]; [6],7620 ng/mL
same,half-life,[3]; [6],24 min
same,Kp,[3]; subcutaneous,0.25
same,Estimated unbound brain Cmax,"[3]; SC, dose 3 (mg/mg [sic]), based on brain/plasma ratio 0.25 and unbound fraction in brain 12%",95 nM
same,"Unbound plasma, Cmax","[3]; SC, dose 3 (mg/mg [sic]), unbound fraction in plasma 12%",380 nM
same,Estimated unbound brain Cmax,"[3]; SC, dose 30 (mg/mg [sic]), based on brain/plasma ratio 0.25 and unbound fraction in brain 12%",663 nM
same,"Unbound plasma, Cmax","[3]; SC, dose 30 (mg/mg [sic]), unbound fraction in plasma 12%",2650 nM
same,EC50,hNav1.1,> 30 µM
same,IC50,hNav1.1,> 30 µM
same,Outward current in presence of compound relative to baseline,[4],121±2%
"Cc1cnc(CNC(=O)c2ccn(S(=O)(=O)c3ccc(F)cc3C)c2)cn1 [Compound 90, 1-(4-fluoro-2-methylbenzene-1-sulfonyl)-N-[(5-methylpyrazin-2-yl)methyl]-1H-pyrrole-3-carboxamide]",Kp,[1],0.4
same,Cmax,"[1]; 3 mg/kg, PO administration, dose 3 (mg/mg), vehicle 10% HP-betaCD",274 ng/mL
same,half-life,"[1]; 3 mg/kg, PO administration, dose 3 (mg/mg)",60 min
same,Cmax,"[1]; 3 mg/kg, SC administration, dose 3 (mg/mg), vehicle 10% HP-betaCD",1130 ng/mL
same,half-life,"[1]; 3 mg/kg, SC administration, dose 3 (mg/mg)",30 min
same,Cmax,"[1]; 10 mg/kg, SC administration, dose 10 (mg/mg), vehicle 10% HP-betaCD",6360 ng/mL
same,half-life,"[1]; 10 mg/kg, SC administration, dose 10 (mg/mg)",78 min
same,Cmax,"[1]; 30 mg/kg, PO administration, dose 30 (mg/mg), vehicle 10% HP-betaCD",7350 ng/mL
same,half-life,"[1]; 30 mg/kg, PO administration, dose 30 (mg/mg)",60 min
same,Estimated unbound brain Cmax,"[1]; PO, dose 3 (mg/mg), based on brain/plasma ratio 0.4 and unbound fraction in brain 10%",28 nM
same,"Unbound plasma, Cmax",[1]; [7],70 nM
same,Estimated unbound brain Cmax,"[1]; PO, dose 30 (mg/mg), based on brain/plasma ratio 0.4 and unbound fraction in brain 10%",753 nM
same,"Unbound plasma, Cmax",[1]; [8],1895 nM
same,Estimated unbound brain Cmax,"[1]; SC, dose 3 (mg/mg), based on brain/plasma ratio 0.4 and unbound fraction in brain 10%",116 nM
same,"Unbound plasma, Cmax",[1]; [9],291 nM
same,Estimated unbound brain Cmax,"[1]; SC, dose 10 (mg/mg), based on brain/plasma ratio 0.4 and unbound fraction in brain 10%",656 nM
same,"Unbound plasma, Cmax",[1]; [10],1639 nM
same,fraction unbound,[2]; rat PK table footnote,0.08
same,Cmax,[3]; [11],627 ng/mL
same,half-life,[3]; [11],120 min
same,Cmax,[3]; [12],3940 ng/mL
same,half-life,[3]; [12],66 min
same,Cmax,[3]; [13],427 ng/mL
same,half-life,[3]; [13],48 min
same,Cmax,[3]; [14],1370 ng/mL
same,half-life,[3]; [14],42 min
same,Kp,[3],0.5
same,Estimated unbound brain Cmax,"[3]; PO, dose 3 (mg/mg), based on brain/plasma ratio 0.5 and unbound fraction in brain 8%",65 nM
same,"Unbound plasma, Cmax",[3]; [7],160 nM
same,Estimated unbound brain Cmax,"[3]; PO, dose 30 (mg/mg), based on brain/plasma ratio 0.5 and unbound fraction in brain 8%",406 nM
same,"Unbound plasma, Cmax",[3]; [8],1015 nM
same,Estimated unbound brain Cmax,"[3]; SC, dose 3 (mg/mg), based on brain/plasma ratio 0.5 and unbound fraction in brain 8%",44 nM
same,"Unbound plasma, Cmax",[3]; [9],110 nM
same,Estimated unbound brain Cmax,"[3]; SC, dose 10 (mg/mg), based on brain/plasma ratio 0.5 and unbound fraction in brain 8%",142 nM
same,"Unbound plasma, Cmax",[3]; [10],353 nM
same,EC50,hNav1.1,> 30 µM
same,IC50,hNav1.1,> 30 µM
same,Reversibility of compound-mediated increase in outward K+ current (Wash),[4],largely reversible
same,Outward current in presence of compound relative to baseline,[4],144±4%

# — patent publication US20200131156A1, “ARYLSULFONYLPYROLECARBOXAMIDE DERIVATIVES AS Kv3 POTASSIUM CHANNEL ACTIVATORS” (H. Lundbeck A/S, priority 2018, published 2020)
